Our source for the IC50 values is patent US20050282818A1, “Ubiquitin ligase inhibitors” (Rigel Pharmaceuticals, Inc., priority 2004, published 2005).

Experiment [1] addresses T1, TRAF6/Uev1A/Ubc13 (Homo sapiens, UniProt Q9Y4K3).
T1 sequence (Q9Y4K3 1-522): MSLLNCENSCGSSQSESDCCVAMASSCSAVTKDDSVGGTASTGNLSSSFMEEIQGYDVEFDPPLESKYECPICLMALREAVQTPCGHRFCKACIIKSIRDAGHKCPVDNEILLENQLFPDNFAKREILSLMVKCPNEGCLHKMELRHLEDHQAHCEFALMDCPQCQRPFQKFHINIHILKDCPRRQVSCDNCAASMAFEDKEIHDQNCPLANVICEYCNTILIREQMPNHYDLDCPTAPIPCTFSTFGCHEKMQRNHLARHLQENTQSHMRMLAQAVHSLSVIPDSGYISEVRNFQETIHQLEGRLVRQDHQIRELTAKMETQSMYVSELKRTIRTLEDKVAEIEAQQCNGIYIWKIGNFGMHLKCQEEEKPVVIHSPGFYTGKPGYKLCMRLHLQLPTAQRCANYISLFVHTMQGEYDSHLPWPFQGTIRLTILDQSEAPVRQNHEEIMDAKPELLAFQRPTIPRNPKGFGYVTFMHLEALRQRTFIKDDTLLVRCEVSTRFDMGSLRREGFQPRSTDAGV
Description: TRAF6/Uev1A/Ubc13 plate-based ubiquitin ligase assay. In kind it is biochemical. Summed up:
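Ligase activity was read as luminescence from anti-Flag/HRP detection of Flag-ubiquitin bound to casein-blocked Ni-plates alongside His-ubiquitin after a 1 h room-temperature reaction. Buffer: 62.5 mM Tris pH 7.5, 6.25 mM MgCl2, 1.0 mM DTT, 2 μM ATP; E1, Uev1a/Ubc13 and TRAF6 added last to start. IC50s derived across compound concentrations.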

The test system of experiment [2] is H1299 cells. Description: Cell proliferation PAD assay, H1299. It is filed as cell-based. The conditions noted are these: Homo sapiens, 48 hours. Summed up:
(§1)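 Cells plated at 2,000/well; compounds added 24 h later as 6.3-fold dilutions from a 10 mM master stock, diluted 500-fold into wells, in duplicate. After 48 h at 37 °C, 5% CO2, cells were formamide-fixed, DAPI-stained and imaged to count live, apoptotic and dead cells.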

The subject of experiment [3] is A549 cells. Put plainly: Cell proliferation PAD assay, A549. In kind it is cell-based. The settings on record: Homo sapiens, 48 hours. Summed up: as §1
Setting [4] is: NCI-H1299, 6pt, read-out: H1299 6pt.
[5] abbreviates: NCI-H1299, 3pt, read-out: H1299 3pt.

Read-outs that look alike come from different tables or passages of the source. Some results are limits rather than exact numbers.

On to `CC1(C)CCN(c2ccc([N+](=O)[O-])c3nonc23)CC1` [compound 242, 4-(4,4-dimethylpipendin-1-yl)-7-nitro-2,1,3-benzoxadiazole], for which the IC50 in experiment [1] is at least 20 µM; in experiment [2] (setting [4]), at least 20 µM; in experiment [3] (6pt, read-out: A549 6pt), at least 20 µM.

For `O=S(=O)(Nc1cccc2cnccc12)c1cccc2nonc12` [compound 12, N-isoquinolin-5-yl-2,1,3-benzoxadiazole-4-sulfonamide], the IC50 was at least 20 µM in experiment [1]; at least 20 µM in experiment [2] (setting [5]); at least 20 µM in experiment [3] (3pt, read-out: A549 3pt).

Turning to `O=c1[nH]c2ccccc2n1C1CCN(c2ccc([N+](=O)[O-])c3nonc23)CC1` [compound 160, 1-[1-(7-nitro-2,1,3-benzoxadiazol-4-yl)piperidin-4-yl]-1,3-dihydro-2H-benzimidazol-2-one], the IC50 in experiment [1] is at least 20 µM; in experiment [2] (setting [5]), at least 20 µM; in experiment [3] (3pt, read-out: A549 3pt) it was at least 20 µM.

With `O=S(=O)(c1ccc(N2CCN(c3ccc(O)cc3)CC2)c2nonc12)N1CCN(c2ccc(O)cc2)CC1` [compound 173, 4-[4-({7-[4-(4-hydroxyphenyl)piperazin-1-yl]-2,1,3-benzoxadiazol-4-yl}sulfonyl)piperazin-1-yl]phenol], the IC50 in experiment [1] is at least 20 µM; in experiment [2] (setting [4]) it was 1 to 20 µM; in experiment [3] (6pt, read-out: A549 6pt), 1 to 20 µM.

Consider `CC(C)(C)c1ccc(-c2cccc3nonc23)cc1` [compound 307, 4-(4-Tert-butylphenyl)-2,1,3-benzoxadiazole], for which the IC50 in experiment [1] is at least 20 µM; in experiment [2] (setting [4]), at least 20 µM; in experiment [3] (6pt, read-out: A549 6pt), at least 20 µM.

Consider `O=S(=O)(Nc1cccc2nonc12)c1ccc(Oc2ccccc2)cn1` [compound 87, N-2,1,3-benzoxadiazol-4-yl-5-phenoxypyridine-2-sulfonamide], for which the IC50 in experiment [1] was at least 20 µM; in experiment [2] (setting [5]) it was at least 20 µM; in experiment [3] (3pt, read-out: A549 3pt), at least 20 µM.

For `Nc1ccc(S(=O)(=O)Nc2ccnc(Cl)c2)c2nonc12` [compound 195, 7-amino-N-(2-chloropyridin-4-yl)-2,1,3-benzoxadiazole-4-sulfonamide], the IC50 was at least 20 µM in experiment [1]; at least 20 µM in experiment [2] (setting [5]); at least 20 µM in experiment [3] (3pt, read-out: A549 3pt).

`CC(C)(C)OC(=O)N1CCN(c2ccc([N+](=O)[O-])c3nonc23)CC1` [compound 72, Tert-butyl 4-(7-nitro-2,1,3-benzoxadiazol-4-yl)piperazine-1-carboxylate]: the IC50 in experiment [1] was at least 20 µM; in experiment [2] (setting [5]), at least 20 µM; in experiment [3] (3pt, read-out: A549 3pt) it was at least 20 µM.

Consider `N#Cc1cccnc1N1CCN(c2ccc([N+](=O)[O-])c3nonc23)CC1` [compound 118, 2-[4-(7-nitro-2,1,3-benzoxadiazol-4-yl)piperazin-1-yl]nicotinonitrile], for which the IC50 was 1 to 20 µM in experiment [1]; at least 20 µM in experiment [2] (setting [5]); at least 20 µM in experiment [3] (3pt, read-out: A549 3pt).

In the case of `CC(=O)N1CCN(c2ccc([N+](=O)[O-])c3nonc23)CC1` [compound 88, 4-(4-acetylpiperazin-1-yl)-7-nitro-2,1,3-benzoxadiazole], the IC50 is at least 20 µM in experiment [1]; at least 20 µM in experiment [2] (setting [5]); at least 20 µM in experiment [3] (3pt, read-out: A549 3pt).

On to `O=S(=O)(Nc1ccc(Oc2ccccc2)cc1)c1cccc2nonc12` [compound 102, N-(4-phenoxyphenyl)-2,1,3-benzoxadiazole-4-sulfonamide], for which the IC50 in experiment [1] was at least 20 µM; in experiment [2] (setting [5]), at least 20 µM; in experiment [3] (3pt, read-out: A549 3pt), at least 20 µM.

On to `O=S(=O)(c1ccc(N2CCN(c3ccccc3)CC2)c2nonc12)N1CCN(c2ccccc2)CC1` [compound 187, 4-(4-phenylpiperazin-1-yl)-7-[(4-phenylpiperazin-1-yl)sulfonyl]-2,1,3-benzoxadiazole], for which the IC50 is 1 to 20 µM in experiment [1]; at least 20 µM in experiment [2] (setting [5]); at least 20 µM in experiment [3] (3pt, read-out: A549 3pt).

`O=S(=O)(c1cccc2nonc12)N1CCC(Oc2ncccn2)CC1` [compound 235]: the IC50 in experiment [1] is at least 20 µM; in experiment [2] (setting [5]), at least 20 µM; in experiment [3] (3pt, read-out: A549 3pt) it was at least 20 µM.

As for `COc1ccc(S(=O)(=O)N2CCN(c3ncc(C(F)(F)F)cc3Cl)CC2)c2nonc12` [compound 163, 4-({4-[3-chloro-5-(trifluoromethyl)pyridin-2-yl]piperazin-1-yl}sulfonyl)-7-methoxy-2,1,3-benzoxadiazole], the IC50 in experiment [1] is 1 to 20 µM; in experiment [2] (setting [5]), at least 20 µM; in experiment [3] (3pt, read-out: A549 3pt) it was at least 20 µM.

As for `O=[N+]([O-])c1ccc(N2CCN(c3c(Cl)cncc3Cl)CC2)c2nonc12` [compound 151, 4-[4-(3,5-dichloropyridin-4-yl)piperazin-1-yl]-7-nitro-2,1,3-benzoxadiazole], the IC50 in experiment [1] is 1 to 20 µM; in experiment [2] (setting [5]), at least 20 µM; in experiment [3] (3pt, read-out: A549 3pt) it was at least 20 µM.

Regarding `CC1(C)CCN(S(=O)(=O)c2ccc(F)c3nonc23)CC1` [compound 243, 4-[(4,4-dimethylpiperidin-1-yl)sulfonyl]-7-fluoro-2,1,3-benzoxadiazole], the IC50 is at least 20 µM in experiment [1]; at least 20 µM in experiment [2] (setting [4]); below 1 µM in experiment [3] (6pt, read-out: A549 6pt).

With `O=S(=O)(Nc1cccc2nsnc12)c1ccc(Oc2cccnc2)cc1` [compound 116, N-2,1,3-benzothiadiazol-4-yl-4-(pyridin-3-yloxy)benzenesulfonamide], the IC50 in experiment [1] was at least 20 µM; in experiment [2] (setting [5]) it was at least 20 µM; in experiment [3] (3pt, read-out: A549 3pt) it was 1 to 20 µM.

Turning to `Cc1cccnc1N1CCN(c2ccc([N+](=O)[O-])c3nonc23)CC1` [compound 156, 4-[4-(3-methylpyridin-2-yl)piperazin-1-yl]-7-nitro-2,1,3-benzoxadiazole], the IC50 is at least 20 µM in experiment [1]; at least 20 µM in experiment [2] (setting [5]); at least 20 µM in experiment [3] (3pt, read-out: A549 3pt).

Turning to `O=S(=O)(c1ccc(F)c2nonc12)N1CCN(c2ncccc2C(F)(F)F)CC1` [compound 165, 4-fluoro-7-({4-[3-(trifluoromethyl)pyridin-2-yl]piperazin-1-yl}sulfonyl)-2,1,3-benzoxadiazole], the IC50 is at least 20 µM in experiment [1]; at least 20 µM in experiment [2] (setting [5]); at least 20 µM in experiment [2] (setting [4]); 1 to 20 µM in experiment [3] (3pt, read-out: A549 3pt); at least 20 µM in experiment [3] (6pt, read-out: A549 6pt).

On to `Cc1ccc(F)cc1NS(=O)(=O)c1cccc2nonc12` [compound 13, N-(5-fluoro-2-methylphenyl)-2,1,3-benzoxadiazole-4-sulfonamide], for which the IC50 in experiment [1] is at least 20 µM; in experiment [2] (setting [5]) it was at least 20 µM; in experiment [3] (3pt, read-out: A549 3pt) it was at least 20 µM.

Turning to `O=S(=O)(Nc1ccc(Oc2ncc(C(F)(F)F)cc2Cl)cc1)c1cccc2nonc12` [compound 62, N-(4-{[3-chloro-5-(trifluoromethyl)pyridin-2-yl]oxy}phenyl)-2,1,3-benzoxadiazole-4-sulfonamide], the IC50 is at least 20 µM in experiment [1]; at least 20 µM in experiment [2] (setting [5]); at least 20 µM in experiment [3] (3pt, read-out: A549 3pt).

In the case of `O=[N+]([O-])c1ccc(Oc2ccc(NS(=O)(=O)c3cccc4nonc34)cc2)cc1` [compound 101, N-[4-(4-nitrophenoxy)phenyl]-2,1,3-benzoxadiazole-4-sulfonamide], the IC50 in experiment [1] was at least 20 µM; in experiment [2] (setting [5]), at least 20 µM; in experiment [3] (3pt, read-out: A549 3pt), at least 20 µM.

As for `Cc1ccnc(N2CCN(c3ccc([N+](=O)[O-])c4nonc34)CC2)c1` [compound 154, 4-[4-(4-methylpyridin-2-yl)piperazin-1-yl]-7-nitro-2,1,3-benzoxadiazole], the IC50 is at least 20 µM in experiment [1]; at least 20 µM in experiment [2] (setting [5]); at least 20 µM in experiment [3] (3pt, read-out: A549 3pt).

Regarding `O=S(=O)(c1ccc(Cl)c2nonc12)N1CCN(c2ccc(O)cc2)CC1` [compound 172, 4-{4-[(7-chloro-2,1,3-benzoxadiazol-4-yl)sulfonyl]piperazin-1-yl}phenol], the IC50 in experiment [1] is at least 20 µM; in experiment [2] (setting [5]), 1 to 20 µM; in experiment [2] (setting [4]), at least 20 µM; in experiment [3] (3pt, read-out: A549 3pt) it was 1 to 20 µM; in experiment [3] (6pt, read-out: A549 6pt), at least 20 µM.

Take `O=S(=O)(Nc1cccc2nonc12)c1ccc(Oc2cccnc2)cc1` [compound 86, N-2,1,3-benzoxadiazol-4-yl-4-(pyridin-3-yloxy)benzenesulfonamide]: the IC50 in experiment [1] is at least 20 µM; in experiment [2] (setting [5]) it was at least 20 µM; in experiment [3] (3pt, read-out: A549 3pt), at least 20 µM.

With `O=[N+]([O-])c1ccc(N2CCC(Oc3ncccn3)CC2)c2nonc12` [compound 280, 4-nitro-7-[4-(pyrimidin-2-yloxy)piperidin-1-yl]-2,1,3-benzoxadiazole], the IC50 in experiment [1] was at least 20 µM; in experiment [2] (setting [5]), at least 20 µM; in experiment [3] (3pt, read-out: A549 3pt), at least 20 µM.

As for `O=[N+]([O-])c1ccc(N2CCN(c3ccc4ccccc4n3)CC2)c2nonc12` [compound 155, 2-[4-(7-nitro-2,1,3-benzoxadiazol-4-yl)piperadin-1-yl]quinoline], the IC50 was 1 to 20 µM in experiment [1]; at least 20 µM in experiment [2] (setting [5]); at least 20 µM in experiment [3] (3pt, read-out: A549 3pt).
